The values that follow are results of earlier work, collected in paper PMC6504684 (Frontiers in Pharmacology, 2019).

This data set concerns α9α10 nAChRs, mutation α9-Asp121Leu. The conditions noted are these: cited from earlier work.

`CC(=O)OCC[N+](C)(C)C` [ACh, acetylcholine]: the “increase of EC50” value is listed as around 30 times.
